Data on 19 compounds can be found in patent US20220153732A1, “PROTEIN SECRETION INHIBITORS” (KEZAR LIFE SCIENCES, priority 2019, published 2022).

The term EC50 denotes the concentration at which the effect is half-maximal.

Like-named read-outs stand apart in the source and are kept apart here.

Format in all cases: cell-based
Test [1] deals with PD1-ss+10aa/Gaussia Luciferase. Description: Dox-Induced PD1-ss-Gluc Assay. The conditions noted are these: 293FRT/TO cells, read-out: 24 hr Dox Inducible PD1ssGluc 293FRT/TO: Mean IC50. Summed up: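 Compounds, diluted in DMSO/media with doxycycline, were added to cells plated a day earlier and kept at 37° C under 5% CO2. The cells stably express a Gaussia luciferase construct fused to PD1-ss+10aa, induced via the T-REx system. Unassigned stereochemistry means mixture data.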

The subject of test [2] is TNFα-FL/Gaussia Luciferase. Nature of the test: Dox Induced TNFα-FL-Gluc Assay. The settings on record: 293FRT/TO cells, read-out: 24 hr Dox Inducible TNFaFLGluc 293FRT/TO: Mean IC50. Summed up: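 Compounds were added in doxycycline-containing DMSO/media to cells plated the previous day and incubated at 37° C under 5% CO2. These cells stably express a TNFα-FL/Gaussia luciferase cDNA whose expression is under T-REx (Dox-inducible) control, selected with Hygromycin and Blasticidin.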

Test [3] relates to HER3-ss+4aa/Gaussia Luciferase. Description: Dox-Induced Her3-ss-Gluc Assay. The settings on record: 293FRT/TO cells, read-out: 24 hr Dox Inducible Her3(ss + 4)Gluc 293FRT/TO: Mean IC50. In short, it runs like this:
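Compounds, diluted in DMSO/media containing doxycycline, were incubated at 37° C., 5% CO2 with cells seeded one day earlier. The cells stably express HER3-ss+4aa/Gaussia luciferase under T-REx control. Where no stereochemistry is shown, data refer to the mixture of stereoisomers.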

In test [4] the test system is IL-2-FL/Gaussia Luciferase. Nature of the test: Dox Induced IL2-FL-Gluc Assay. The conditions noted are these: 293FRT/TO cells, read-out: 24 hr Dox Inducible IL2FLGIuc 293FRT/TO: Mean IC50. In short, it runs like this: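 Compounds were added together with doxycycline in DMSO/media and incubated at 37° C., 5% CO2. The cells were a stably selected line carrying IL-2-FL/Gaussia luciferase under T-REx inducible control. Structures drawn without stereochemistry were tested as stereoisomer mixtures.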

The subject of test [5] is human multiple myeloma cell line NCI-H929. Nature of the test: H929 Cell Viability Assay. The settings on record: 48 hr, NCI-H929 cells, Celltiter-Glo, read-out: 48 hr H929 Viability Celltiter-Glo: Mean EC50. On the procedure: Plates were incubated at 37° C., 5% CO2 for 48 hours. After 48 hours, Celltiter-Glo® (Promega) was added to each well and luciferase signal was quantified using Tecan Infinite M1000 Pro for cell viability determination.
For chemical structures that include one or more stereoisomers, but are illustrated without indicating stereochemistry, the assay data refers to a mixture of stereoisomers.

Test [6] has as its system human multiple myeloma cell line U266B1. Description: U266 Cell Viability Assay. The settings on record: U-266, 48 hr, U266B1 cells, Celltiter-Glo, read-out: 48 hr U266 Viability Celltiter-Glo: Mean EC50. Summed up: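 Viability measured by CellTiter-Glo luciferase signal after 48 h compound exposure (37 °C, 5% CO2) of U266B1 cells in 384-well format. Where stereochemistry is not shown, data refer to the stereoisomer mixture.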
(ATP-based viability assays read luminescence as a measure of living cells.)

[7] abbreviates: 24 hr doxycycline induction, Gaussia luciferase signal.

For `CCc1nc(NC(=O)c2cccn2Cc2ccccc2Cl)sc1C` [Compound B7, 1-(2-chlorobenzyl)-N-(4-ethyl-5-methylthiazol-2-yl)-1H-pyrrole-2-carboxamide], the IC50 is 9.07 µM in test [1] (24 hr, doxycycline-induced); more than 25 µM in test [2] (24 hr, doxycycline-induced); 20 µM in test [3] (24 hr, doxycycline-induced); 24.3 µM in test [4] (24 hr, doxycycline-induced). In addition, the EC50 in test [5] and in test [6] was more than 25 µM throughout.

`Cc1cc(C(=O)Nc2nc(C(C)(C)OC(C)C)cs2)n(Cc2ccncc2)n1` [Compound A103]: the IC50 in test [1] (setting [7]), in test [2] (setting [7]), in test [3] (setting [7]) and in test [4] (setting [7]) was more than 25 µM throughout. In addition, the EC50 in test [5] and in test [6] was more than 25 µM each time.

Regarding `CC(C)OC(C)(C)c1csc(NC(=O)c2sccc2-c2ccncc2)n1` [Compound A348], the IC50 in test [1] (24 hr, doxycycline-induced) was more than 25 µM; in test [2] (24 hr, doxycycline-induced) it was more than 25 µM; in test [3] (24 hr, doxycycline-induced), more than 25 µM; in test [4] (24 hr, doxycycline-induced), more than 25 µM. Besides, the results for the EC50 in test [5] and in test [6] were 17 µM and 18.3 µM, respectively.

As to `COc1ccc(/C=C/c2csc(NC(=O)c3cccn3Cc3ccncc3)n2)cc1F` [Compound A240, N-(4-(3-fluoro-4-methoxystyryl)thiazol-2-yl)-1-(pyridin-4-ylmethyl)-1H-pyrrole-2-carboxamide], the IC50 in test [1] (setting [7]) is 0.055 µM; in test [2] (setting [7]), 7.79 µM; in test [3] (setting [7]), 0.271 µM; in test [4] (setting [7]), 0.445 µM. Besides, the EC50 in test [5] is 11.8 µM; in test [6], more than 25 µM.

As to `O=C(Nc1nc(/C=C/c2ccccc2)cs1)c1cccn1Cc1ccncc1` [Compound A14, 1-(pyridin-4-ylmethyl)-N-(4-styrylthiazol-2-yl)-1H-pyrrole-2-carboxamide], the IC50 is 0.153 µM in test [1] (setting [7]), 5.11 µM in test [2] (setting [7]), 0.568 µM in test [3] (setting [7]) and 1.05 µM in test [4] (setting [7]). Also, the EC50 in test [5] and in test [6] was more than 25 µM in each case.

Take `O=C(Nc1nc(/C=C/c2cnc3c(c2)OCO3)cs1)c1cccn1Cc1ccncc1` [Compound A274]: the IC50 stood at 0.363 µM in test [1] (setting [7]), 22.3 µM in test [2] (setting [7]), 2.55 µM in test [3] (setting [7]) and 3.74 µM in test [4] (setting [7]). The EC50 in test [5] is 23.9 µM; in test [6], more than 25 µM.

In the case of `CC(c1ccccc1)c1csc(NC(=O)c2cccn2Cc2ccncc2)n1` (stereo not drawn) [Compound A21], the IC50 was 0.259 µM in test [1] (setting [7]), 3.68 µM in test [2] (setting [7]), 0.59 µM in test [3] (setting [7]) and 0.502 µM in test [4] (setting [7]). The EC50 in test [5] and in test [6] was more than 25 µM in each case.

For the compound `N#Cc1ccc(/C=C/c2csc(NC(=O)c3cccn3Cc3ccncc3)n2)nc1` [Compound A341], the IC50 was 0.047 µM in test [1] (24 hr, doxycycline-induced); more than 25 µM in test [2] (24 hr, doxycycline-induced); more than 25 µM in test [3] (24 hr, doxycycline-induced); more than 25 µM in test [4] (24 hr, doxycycline-induced). For the same compound, the EC50 in test [5] and in test [6] was more than 25 µM each time.

For `O=C(Nc1nc(C2CCc3ccccc3O2)cs1)c1cccn1Cc1ccncc1` (stereo not drawn) [Compound A283], the IC50 was determined as 1.35 µM in test [1] (setting [7]), 7.18 µM in test [2] (setting [7]), 3.07 µM in test [3] (setting [7]) and 3.87 µM in test [4] (setting [7]). Also, the values for the EC50 in test [5] and in test [6] were 23 µM and more than 25 µM, respectively.

In the case of `Cc1cnc(NC(=O)c2cccn2Cc2ccncc2)s1` [Compound A72, N-(5-methylthiazol-2-yl)-1-(pyridin-4-ylmethyl)-1H-pyrrole-2-carboxamide], the IC50 was 2.47 µM in test [1] (setting [7]), more than 25 µM in test [2] (setting [7]), 6.11 µM in test [3] (setting [7]) and 22.4 µM in test [4] (setting [7]). The 50% effective concentration (EC50) in test [5] and in test [6] was more than 25 µM in each case.

`CC(OC(C)(C)c1csc(NC(=O)c2cccn2Cc2ccncc2)n1)c1ccccc1` (stereo not drawn) [Compound A3, N-(4-(2-(1-phenylethoxy)propan-2-yl)thiazol-2-yl)-1-(pyridin-4-ylmethyl)-1H-pyrrole-2-carboxamide]: the IC50 in test [1] (setting [7]) was 0.036 µM; in test [2] (setting [7]), 0.58 µM; in test [3] (setting [7]), 0.099 µM; in test [4] (setting [7]) it was 0.144 µM. The EC50 was 2.91 µM in test [5] and more than 25 µM in test [6].

Turning to `COc1ccc(/C=C/c2csc(NC(=O)c3cccn3Cc3ccncc3)n2)cc1` [Compound A160, N-(4-(4-methoxystyryl)thiazol-2-yl)-1-(pyridin-4-ylmethyl)-1H-pyrrole-2-carboxamide], the IC50 in test [1] (setting [7]) stood at 0.051 µM; in test [2] (setting [7]) it was 1.74 µM; in test [3] (setting [7]), 0.259 µM; in test [4] (setting [7]), 0.374 µM. For the same compound, the EC50 is 9.1 µM in test [5] and more than 25 µM in test [6].

For the compound `CCc1cc(NC(=O)c2cccn2Cc2ccncc2)ccc1C` [Compound B10, N-(3-ethyl-4-methylphenyl)-1-(pyridin-4-ylmethyl)-1H-pyrrole-2-carboxamide], the IC50 in test [1] (24 hr, doxycycline-induced) is 11.9 µM; in test [2] (24 hr, doxycycline-induced), more than 25 µM; in test [3] (24 hr, doxycycline-induced), more than 25 µM; in test [4] (24 hr, doxycycline-induced), more than 25 µM. For the same compound, the EC50 in test [5] and in test [6] was more than 25 µM each time.

In the case of `Cc1ccc(C(=O)Nc2nc(C(C)(C)OC(C)C)cs2)n1Cc1ccncc1` [Compound A76, N-(4-(2-isopropoxypropan-2-yl)thiazol-2-yl)-5-methyl-1-(pyridin-4-ylmethyl)-1H-pyrrole-2-carboxamide], the IC50 in test [1] (setting [7]) is 2.73 µM; in test [2] (setting [7]), more than 25 µM; in test [3] (setting [7]) it was 12.5 µM; in test [4] (setting [7]), 3.99 µM. The EC50 in test [5] and in test [6] was more than 25 µM in each case.

Consider `C[C@H](OC(C)(C)c1csc(NC(=O)c2cccn2Cc2ccncc2)n1)c1ccccc1` [Compound A1, (S)-N-(4-(2-(1-phenylethoxy)propan-2-yl)thiazol-2-yl)-1-(pyridin-4-ylmethyl)-1H-pyrrole-2-carboxamide], for which the IC50 in test [1] (setting [7]) was determined as 0.024 µM; in test [2] (setting [7]) it was 0.401 µM; in test [3] (setting [7]) it was 0.055 µM; in test [4] (setting [7]) it was 0.093 µM. Moreover, the EC50 in test [5] is 1.88 µM; in test [6], more than 25 µM.

In the case of `NC(=O)Cc1csc(NC(=O)c2cccn2Cc2ccncc2)n1` [Compound B18], the IC50 was more than 25 µM in test [1] (24 hr, doxycycline-induced); more than 25 µM in test [2] (24 hr, doxycycline-induced); more than 25 µM in test [3] (24 hr, doxycycline-induced); more than 25 µM in test [4] (24 hr, doxycycline-induced). Further, the EC50 in test [5] and in test [6] was more than 25 µM throughout.

With `Cc1cc(Cn2cccc2C(=O)Nc2nc(C(C)(C)OC(C)C)cs2)cc(C)n1` [Compound A97], the IC50 is 18.9 µM in test [1] (setting [7]), more than 25 µM in test [2] (setting [7]), more than 25 µM in test [3] (setting [7]) and more than 25 µM in test [4] (setting [7]). The EC50 in test [5] and in test [6] was more than 25 µM each time.

Consider `O=C(Nc1nc([C@@H]2CCCN2c2ccccc2)cs1)c1cccn1Cc1ccncc1Cl` [Compound A318], for which the IC50 in test [1] (24 hr, doxycycline-induced) is 0.049 µM; in test [2] (24 hr, doxycycline-induced), 0.817 µM; in test [3] (24 hr, doxycycline-induced), 0.097 µM; in test [4] (24 hr, doxycycline-induced), 0.184 µM. The EC50 was 6.04 µM in test [5] and more than 25 µM in test [6].

On to `O=C(Nc1nc(/C=C/c2ccc3c(c2)OCO3)cs1)c1cccn1Cc1ccncc1` [Compound A234, N-(4-(2-(benzo[d][1,3]dioxo1-5-yl)vinyl)thiazol-2-yl)-1-(pyridin-4-ylmethyl)-1H-pyrrole-2-carboxamide], for which the IC50 is 0.063 µM in test [1] (setting [7]), more than 25 µM in test [2] (setting [7]), 0.216 µM in test [3] (setting [7]) and 0.341 µM in test [4] (setting [7]). For the same compound, the EC50 was 4.49 µM in test [5] and more than 25 µM in test [6].
